Reference: patent US8378117B2 (priority 2005, dated 2013)

How the values were obtained:
CB2 receptor [1] = biological target: T1, CB2 receptor (Homo sapiens, UniProt P34972); assay: Modified binding assay, CB2 receptor in CHO cells, [3H]WIN 55212; details: [3H]WIN 55212 0.8 nM, 120 minutes at 37° C.
T1 construct: expressed in transfected cells
Protocol: (§1) Additional receptor binding studies were performed with minor modifications as detailed below.
(§2) The human CB1 and CB2 receptors were stably expressed in CHO cells as described in Rinaldi-Carmona, M., Calandra, B., Shire, D., Bouaboula, M., Oustric, D., Barth, F., Casellas, P., Ferrara, P. and Le Fur, G. (1996) J. PharmacoL Exp. Ther., 278: 871-878 and Munro, S., Thomas, K. L. and Abu-Shaar, M. (1993) Nature, 365: 61-65, respectively. [^3H]CP 55940 (0.5 nM) was used as the radioligand for the CB1 receptor binding assay. [^3H]WIN 55212 (0.8 nM) was used as the radioligand for the CB2 receptor binding assay. Incubation was carried out for 120 minutes at 37° C.
(§3) The specific ligand binding to the receptors is defined as the difference between the total binding and the nonspecific binding determined in the presence of an excess of unlabelled ligand. The results are expressed as a percent of control specific binding ((measured specific binding/control specific binding)×100) obtained in the presence of the test compounds.
(§4) The IC50 values (concentration causing a half-maximal inhibition of control specific binding) were determined by non-linear regression analysis of the competition curves generated with mean replicate values using Hill equation curve fitting (where Y=specific binding, D=minimum specific binding, A=maximum specific binding, C=compound concentration, C50=IC50 and nH=slope factor): (Y=D+[(A−D)/(1+(C/C50)^nH)] CB1 and CB2 Receptor Binding Results
(§5) For compounds tested, an IC50 binding value was obtained from percent inhibition studies in which various test concentrations were used.

CB1 receptor = biological target: T2, CB1 receptor (Homo sapiens, UniProt P21554); assay: Modified binding assay, CB1 receptor in CHO cells, [3H]CP 55940; details: [3H]CP 55940 0.5 nM, 120 minutes at 37° C.
T2 construct: expressed in transfected cells
T2 sequence (P21554 whole entry): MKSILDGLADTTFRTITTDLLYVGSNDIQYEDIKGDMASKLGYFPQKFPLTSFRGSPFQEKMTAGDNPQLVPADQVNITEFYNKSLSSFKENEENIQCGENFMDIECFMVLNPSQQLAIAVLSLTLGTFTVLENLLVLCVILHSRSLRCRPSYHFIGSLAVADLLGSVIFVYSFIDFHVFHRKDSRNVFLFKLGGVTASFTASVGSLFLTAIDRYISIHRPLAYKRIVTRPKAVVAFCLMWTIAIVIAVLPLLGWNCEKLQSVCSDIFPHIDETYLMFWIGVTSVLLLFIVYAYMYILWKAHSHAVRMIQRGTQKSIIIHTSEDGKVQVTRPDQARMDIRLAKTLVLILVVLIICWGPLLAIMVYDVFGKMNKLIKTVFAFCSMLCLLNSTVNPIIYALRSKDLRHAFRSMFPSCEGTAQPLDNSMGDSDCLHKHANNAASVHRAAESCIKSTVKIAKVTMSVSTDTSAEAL
Protocol: as §1, §2, §3, §4, §5

CB2 receptor [2] = biological target: T1, CB2 receptor; assay: Functional cell-based assay, CB2 receptor mediated change in CRE β-gal expression (SK-N-MC cells); details: CB2 Receptor Functional Agonist EC50, forskolin induced β-galactosidase activity, SK-N-MC cells
From the text: The CB1 and CB2 receptors are G-protein coupled receptors (GPCR), which influence cell function via the Gi-protein. These receptors modulate the activity of intracellular adenylate cyclase, which in turn produces the intracellular signal messenger cyclic-AMP (cAMP).
At baseline, or during non-ligand bound conditions, these receptors are constitutively active and tonically suppress adenylate cyclase activity. The binding of an agonist causes further receptor activation and produces additional suppression of adenylate cyclase activity. The binding of an inverse agonist inhibits the constitutive activity of the receptors and results in an increase in adenylate cyclase activity.
By monitoring intracellular adenylate cyclase activity, the ability of compounds to act as agonists or inverse agonists can be determined.
Test compounds were evaluated in SK-N-MC cells which, using standard transfection procedures, were stably transfected with human cDNA for pcDNA3-CRE β-gal and pcDNA3 CB1 receptor (human) or pcDNA3 CB2 receptor (human). By expressing CRE β-gal, the cells produced β-galactosidase in response to CRE promoter activation by cAMP. Cells expressing CRE β-gal and either the human CB1 or CB2 receptor will produce less β-galactosidase when treated with a CB1/CB2 agonist and will produce more β-galactosidase when treated with a CB1/CB2 inverse agonist.
The cells were grown in 96-well plates under standard cell culture conditions at 37° C. in a 5% CO2 atmosphere and culture media (wherein the media was supplemented with 2 mM L-glutamine, […] sodium pyruvate, 10% FBS (fetal bovine serum) and antibiotics).
For cells expressing CRE β-gal and the CB2 receptor, CB2 agonists reduced β-galactosidase activity in a dose-dependent manner and CB2 inverse agonists increase β-galactosidase activity in a dose-dependent manner.
The change in forskolin induced β-galactosidase activity was determined by setting a vehicle treated cell's activity value at 100% and expressing the β-galactosidase activity measured in a corresponding compound treated cell as a percent of the vehicle treated cell activity.
The EC50 value for functional activity for compounds tested was calculated by linear regression and was obtained from studies in which varying compound concentrations were used.

Male CD-1 mice = assay: Oil of mustard induced colitis model; assay type: in vivo; details: Therapeutic Regimen, 5 mg/kg oral; 5 mg/kg
From the text: In the distal colon, the oil of mustard colitis model is characterized by a discontinuous pattern of mucosal epithelial damage, submucosal edema, infiltration of inflammatory cells (including macrophages, neutrophils and lymphocytes) into the mucosa and submucosa, increased wet weight of the colon, shrinkage of the colon length, diarrhea and apparent inflammation (see, Kimball E. S., Palmer J. M., D'Andrea M. R., Homby P. J. and Wade P. R., Acute colitis induction by oil of mustard results in later development of an IBS-like accelerated upper GI transit in mice, Am. J Physiol. Gastrointest. Liver Physiol., 2005, 288: G 1266-1273).
Male CD-1 mice (Charles River Laboratories, Kingston, N.C.) (9-11 weeks old) and fresh oil of mustard (OM) (allyl isothiocyanate, 98% purity, Sigma-Aldrich St. Louis, Mo.) were used.
The mice (9 per treatment group) were briefly anesthetized with ketamine/xylasine (Sigma, St. Louis, Mo.) and a solution of 0.5% OM in 30% ethanol (50 μL) was administered intracolonically (to a depth of 4 cm) via syringe (equipped with a ball-tipped 22 G needle).
A test compound was orally administered one day prior to colitis induction for assessing a prophylactic regimen or one day post-induction for assessing a therapeutic regimen. A test compound was orally administered daily thereafter. Two days after OM administration, the last test compound dose was administered.
Three days after OM administration, the animals were sacrificed. The colons were resected, examined for signs of inflammation, weighed after removing fecal contents and the length from the aboral end of the cecum to the anus was measured. The fecal contents were examined for signs of diarrhea. The distal colon between the 1st and the 4th centimeter was removed and placed in 10% neutral buffered formalin for histological analysis.
The macroscopic observations of colon inflammation (a measure of colon damage), colon weight and length and stool consistency and appearance were assigned a score and used to evaluate colitis severity.
The four observation scores for each colon were combined, whereby a combined score of 0 represents a normal colon and a combined score of 15 represents a maximally affected colon. Statistical analyses were performed in Graphpad Prism 4.0 using ANOVA.
Histological analyses of tissues consisted of staining paraffin-embedded tissue sections with hematoxylin-eosin dye. The tissues were examined using light microscopy by an investigator who was blinded to the sample groups.
The microscopic observations of epithelial damage, cellular infiltration and damage or alteration of smooth muscle architecture (a measure of muscle damage) were assigned a score and used to evaluate colitis severity.
The scores for each colon were combined, whereby a combined score of 0 represents a normal colon and a combined score of 9 represents a maximally affected colon. Statistical analyses were performed in Graphpad Prism 4.0 using ANOVA.
The Macroscopic Score and Microscopic Score results for each treatment group in the prophylactic and therapeutic regimens were each combined into a mean score and expressed as % inhibition of colitis (% Inh). Test (#) represents the number of experiments at each dose level.

T1 sequence (P34972 whole entry): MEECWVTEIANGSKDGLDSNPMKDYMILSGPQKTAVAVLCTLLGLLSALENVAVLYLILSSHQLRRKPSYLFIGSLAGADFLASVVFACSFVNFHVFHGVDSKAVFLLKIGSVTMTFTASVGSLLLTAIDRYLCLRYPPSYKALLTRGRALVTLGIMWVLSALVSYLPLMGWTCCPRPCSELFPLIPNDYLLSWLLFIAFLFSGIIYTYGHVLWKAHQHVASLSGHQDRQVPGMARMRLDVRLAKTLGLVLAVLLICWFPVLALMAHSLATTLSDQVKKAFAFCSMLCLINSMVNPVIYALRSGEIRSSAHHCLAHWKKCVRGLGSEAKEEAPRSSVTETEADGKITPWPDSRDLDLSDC

Compound: O=C(N[C@H](CO)c1ccccc1)c1n[nH]c2c1CCCCC2Cc1cccc(Cl)c1 (single isomer, unassigned) [Cpd 230, (8R*)-8-(3-chloro-benzyl)-1,4,5,6,7,8-hexahydro-cycloheptapyrazole-3-carboxylic acid [(1S)-2-hydroxy-1-phenyl-ethyl]-amide]
- IC50 (CB2 receptor [1]): 92 nM
- IC50 (CB1 receptor): 370 nM
- EC50 (CB2 receptor [2]): 2 nM
- % Inh (Macro), % inhibition of colitis, macroscopic score (Male CD-1 mice): 25.9 ± 24.7%

Compound: O=C(N[C@H](CO)c1ccccc1)c1n[nH]c2c1CCCCC2Cc1cccc(Cl)c1 (single isomer, unassigned) [Cpd 231, (8S*)-8-(3-chloro-benzyl)-1,4,5,6,7,8-hexahydro-cycloheptapyrazole-3-carboxylic acid [(1S)-2-hydroxy-1-phenyl-ethyl]-amide]
- IC50 (CB2 receptor [1]): 1800 nM
- IC50 (CB1 receptor): > 3000 nM
- EC50 (CB2 receptor [2]): 12 nM
- % Inh (Macro), % inhibition of colitis, macroscopic score (Male CD-1 mice): −19 ± 20.7%

Compound: C[C@H](NS(=O)(=O)/C=C/c1n[nH]c2c1CCCCC2Cc1cccc(F)c1)c1ccccc1 (single isomer, unassigned) [Cpd 232, (2E)-2-[(8R*)-8-(3-fluoro-benzyl)-1,4,5,6,7,8-hexahydro-cycloheptapyrazol-3-yl]-ethenesulfonic acid [(1S)-1-phenyl-ethyl]-amide]
- EC50 (CB2 receptor [2]): 9 nM

Compound: C[C@H](NS(=O)(=O)/C=C/c1n[nH]c2c1CCCC/C2=C\c1ccc(Cl)cc1)c1ccccc1 [Cpd 237, (2E,8E)-2-[8-(4-chloro-benzylidene)-1,4,5,6,7,8-hexahydro-cycloheptapyrazol-3-yl]-ethenesulfonic acid [(1S)-1-phenyl-ethyl]-amide]
- IC50 (CB2 receptor [1]): 690 nM
- IC50 (CB1 receptor): > 3000 nM
- EC50 (CB2 receptor [2]): 9 nM
